Assay results taken from the METLIN SMRT retention time set (Domingo-Almenara et al. 2019).

Assay: gradient 5% acetonitrile 3 min, to 50% in 2 min, to 85% in 15 min, held 3 min, 100 µL/min
Conditions: column: Zorbax Extend-C18 2.1 x 50 mm; eluents: water / acetonitrile, 0.1% formic acid
In short: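 Standards, all pure, were combined into mixtures of ~100 molecules and run at 100 μL/min on a Zorbax Extend-C18 column (2.1 × 50 mm, 1.8 μm) with water and acetonitrile, each containing 0.1% formic acid. A coupled quadrupole time-of-flight mass spectrometer operated in positive and negative ionization mode. Retention time values come from computationally picked adduct peaks, each inspected manually.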

| Compound | RP-LC retention time |
| --- | --- |
| CC(=O)C1=C(C)N(CC2CCCO2)C(=O)C1(NC(=O)c1ccc(C(C)(C)C)cc1)C(F)(F)F (stereo not drawn) | 1050 s |
| COc1ccc(-c2noc(-c3cccn(CC(=O)Nc4ccc(C#N)cc4)c3=O)n2)cc1OC | 779 s |
| COc1ccc(N2CCN(C3=NS(=O)(=O)c4ccccc43)CC2)cc1 | 780 s |
| CCCCN(C(=O)c1ccc(S(=O)(=O)N2CCOCC2)cc1)C1CCS(=O)(=O)C1 (stereo not drawn) | 687 s |
| O=C(NC1CCCCC1)c1cn(-c2cc(-c3nc(C4CC4)no3)ccn2)cn1 | 961 s |
| CC1=C(c2ccc(C)cc2)S(=O)(=O)N=C1N1CCCN(C(=O)Nc2ccccc2)CC1 | 846 s |
| Cc1ccc(C)c(NC(=O)Cn2ccc3ccn(C)c3c2=O)c1 | 784 s |
| CCc1ccc(NS(=O)(=O)c2cc(-c3c(CC)noc3NC(C)=O)ccc2C)cc1 | 886 s |
| CC(C)(C)c1ccc(O)c(NC(=O)c2cn(-c3ccc(S(=O)(=O)N4CCCC4)cc3)cn2)c1 | 1020 s |
| CC1=C(c2ccc(C)c(C)c2)S(=O)(=O)N=C1N1CCC(NC(=O)NC(C)(C)C)CC1 | 1350 s |
| Cc1nc2cc(-c3noc(-c4ccc5ccccc5n4)n3)ccc2o1 | 998 s |
| Cc1ccc(-c2noc(CN3N=NC4C(=O)N(c5ccc(C)c(C)c5)C(=O)C43)n2)cc1 (stereo not drawn) | 1110 s |
| CCc1ccc(C2=C(C)C(N3CCCN(C(=O)c4cccs4)CC3)=NS2(=O)=O)cc1 | 893 s |
| O=C(c1cnccn1)N1C[C@@H](COCC2CC2)[C@H](c2ccncc2)C1 | 563 s |
| CCN1C(=O)CCc2cc(NS(=O)(=O)Cc3cccc(Cl)c3)ccc21 | 846 s |
| O=C(NC1CC1)C1CCN(c2ccc(=O)n(-c3ccc(F)cc3)n2)CC1 | 671 s |
| CCn1nc(C)cc1C(=O)Nc1nc(-c2cccs2)cs1 | 903 s |
| Cc1ccc(-c2nc3ccc(Cl)cn3c2Nc2ccccc2C)cc1 | 904 s |
| COc1ccccc1NC(=O)N1C[C@H](c2nc(-c3ccccc3)no2)[C@@H](C)C1 | 883 s |
| Cc1cc(C)cc(-n2ncc3c(N4CCC(C(N)=O)CC4)ncnc32)c1 | 724 s |
| COC(=O)c1cccc(NC(=O)C2CCCN(c3nnc4ccc(Cl)cn34)C2)c1 (stereo not drawn) | 735 s |
| O=C(c1ccc(-n2cnnn2)cc1)N1CCN(c2ccccn2)CC1 | 567 s |

| Compound | RP-LC retention time |
| --- | --- |
| CC(C(=O)NCCc1c[nH]c2ccc(Cl)cc12)C1CCN(S(=O)(=O)c2cccs2)CC1 (stereo not drawn) | 921 s |
| Cn1cnc2cc(OC(=O)c3c(F)cccc3F)ccc21 | 590 s |
| Cc1cc(N2CCOCC2)n2nc(CN3CCN(c4cccc(Cl)c4)CC3)nc2n1 | 656 s |
| Cc1nc([C@H]2CCN(Cc3cc(Cl)ccc3F)C[C@H]2N(C)C)n[nH]1 | 567 s |
| COc1ccccc1C1CC(c2ccccc2NS(C)(=O)=O)=NN1C(=O)c1ccco1 (stereo not drawn) | 902 s |
| COC(=O)c1ccc(-c2nc3cnccn3c2Nc2cccc(C(=O)OC)c2)cc1 | 822 s |
| Cc1cc(C)n2nc(CN(C(=O)c3ccco3)c3cccc(Cl)c3)nc2n1 | 776 s |
| Cc1cc(C)c(S(=O)(=O)Nc2ccc(Cn3cncn3)cc2)cc1C | 762 s |
| O=C(CCCc1ccccc1)N1CCN(c2nc(CN3CCCCC3)cs2)CC1 | 692 s |
| CCC(=O)N1CCc2cc(C(=O)N3CCN(C(=O)c4ccco4)CC3)ccc21 | 662 s |
| CCCNc1cc(N2CCC(CCC(=O)NCc3ccc(C)cc3)CC2)ncn1 | 716 s |
| O=C(O)C1c2ccccc2CC(=O)N1Cc1ccccc1 (stereo not drawn) | 723 s |
| Cc1ccc(Cn2c(CN3CCC(C(=O)NCCC4=CCCCC4)CC3)cc3ccccc32)cc1 | 952 s |
| Cc1noc(C)c1CCC(=O)N(C)C1CCc2nn(CC3CC3)c(=O)n2CC1 (stereo not drawn) | 644 s |
| CCc1nc(-c2csc(S(=O)(=O)N3CCC(C(=O)NCc4cccc(C)c4)CC3)c2)no1 | 970 s |
| Cc1ccc(CCNC(=O)C2CCCN(c3ncnc4c3nc3n4CCCCC3)C2)cc1 (stereo not drawn) | 897 s |
| COc1ccc(-c2nc(C)cc(C)c2CNS(=O)(=O)c2cccc(F)c2)cc1 | 657 s |
| COc1ccc(-c2cn3ccn(-c4ccc(OC)c(OC)c4)c(=O)c3n2)cc1 | 732 s |
| CCOC(=O)c1noc2ncnc(NCCCN3CCN(c4cc(C)ccc4C)CC3)c12 | 738 s |
| CC(C)CCNC(=O)NCCn1nnc2cc(C(=O)N3CCCC3)ccc21 | 657 s |
| CCc1cc(-c2csc(S(=O)(=O)NCCc3ccc(Cl)cc3)c2)on1 | 1050 s |
| CS(=O)(=O)N1CCC(C(=O)Nc2nc3c(s2)COCC3)CC1 | 604 s |

| Compound | RP-LC retention time |
| --- | --- |
| O=C(NCCc1ccccc1)NC(c1ccccc1)c1nnc(-c2ccccc2)o1 (stereo not drawn) | 876 s |
| CC(=O)Nc1cc2c(cc1S(=O)(=O)c1ccc(C)cc1)n(C)c(=O)n2C | 683 s |
| O=C(CCS(=O)(=O)c1ccccc1)N1CC(c2nc(-c3cnccn3)no2)C1 | 606 s |
| Cc1cc(=O)n(CC(=O)Nc2ccc(F)cc2)c(N2CCCC2)n1 | 618 s |
| Cc1cc(C(=O)Nc2ccc3nc(N4CCN(C)CC4)cc(C)c3c2)ccc1[N+](=O)[O-] | 595 s |
| CCC1CN2C=NC(N3CCN(C(=O)Nc4ccc(OC)cc4C)CC3)=CC2=N1 (stereo not drawn) | 612 s |
| COc1ccc(-c2nc(-c3ccc4oc(-c5ccccc5)nc4c3)no2)cn1 | 1430 s |
| COc1cc(C)c(Cc2cnc(N)nc2N)cc1OC | 623 s |
| COC(=O)c1cnc2nc(C)ccc2c1Nc1ccccc1 | 627 s |
| COc1ccc(OC)c(CCN2CC(=O)N(c3cccc(C)c3)[C@@H]3CS(=O)(=O)C[C@@H]32)c1 | 848 s |
| Cc1ccc(-c2noc(-c3nn(CC(=O)NC4CCC(C)CC4)c4ccccc34)n2)cc1 (stereo not drawn) | 1300 s |
| O=C(COc1ccc(F)cc1)N1CC(n2cnnc2C2CC2)C1 | 627 s |
| Cc1ccc(-c2nnc(Cc3nc(-c4ccc(Cl)cc4)no3)o2)cc1C | 1220 s |
| O=C(Nc1cccn2cnnc12)c1ccccn1 | 652 s |
| COc1ccc(NC(=O)CN2C(=O)CCc3cc(Br)ccc32)c(OC)c1 | 900 s |
| CCCN(CCC)C1CCc2cccc(OC)c2C1 (stereo not drawn) | 762 s |
| CC(C)NC(=O)C1CCCN(C(=O)Nc2ccc(NC(=O)Nc3ccc(F)cc3)cc2)C1 (stereo not drawn) | 714 s |
| Cc1nccn1C1CN(C(=O)C2CCCCC2)C1 | 572 s |
| CN(C)c1ccc(C(=O)NC(Cc2ccccc2)c2nnc(N3CCCCC3)o2)cc1 (stereo not drawn) | 889 s |
| COC(=O)c1c(C)c(C(=O)C(C)N(C(=O)c2ccc(Cl)cc2)C2CC2)c(C)n1C (stereo not drawn) | 1030 s |
| CCOCCn1c(=O)c2c(nc3n2CC(C)CN3c2ccc(OC)cc2)n(C)c1=O (stereo not drawn) | 853 s |
| O=C1CC(c2ccc3c(c2)OCO3)c2c(c(C(=O)O)cn2-c2cccc(F)c2)N1 (stereo not drawn) | 777 s |

| Compound | RP-LC retention time |
| --- | --- |
| CCn1c(=O)sc2cc(S(=O)(=O)N3CCC(C(=O)NCc4ccccc4Cl)CC3)ccc21 | 905 s |
| Cc1cc(N(C)C)nc(N2CCN(S(=O)(=O)c3cc(C)c(C)cc3C)CC2)n1 | 793 s |
| CCCOc1nc2ccccc2nc1N1CCCC(C(=O)NC2CCCCC2C)C1 (stereo not drawn) | 1310 s |
| COc1ccc(-c2nnc(-c3ccc(C)c(S(=O)(=O)Nc4ccc(Cl)cn4)c3)o2)cc1OC | 918 s |
| CCC(c1cccs1)N1C(=O)[C@H]2CN(S(=O)(=O)c3cc(C)ccc3C)C[C@H]2C1=O (stereo partly drawn) | 1090 s |
| Cc1cc(N2CCN(c3ccccn3)CC2)n2nc(C(F)(F)F)c(-c3ccccc3Cl)c2n1 | 833 s |
| Cn1cc(C(=O)NCCn2ncccc2=O)nn1 | 520 s |
| COc1ccc(NC(=O)N2CCC(n3c(-c4ccoc4)nc4cccnc43)C2)cc1F (stereo not drawn) | 725 s |
| N#Cc1ncc(Cl)c2ccccc12 | 1020 s |
| CCc1noc(-c2cccnc2N2CCCN(Cc3cccc(C)c3)CC2)n1 | 690 s |
| Cc1cccc(CN2C(=O)C3(CCOCC3)CC2c2nnnn2C(C)(C)C)c1 (stereo not drawn) | 833 s |
| Cc1oc(C(C)C)nc1C(=O)NCc1cccs1 | 897 s |
| O=C1CCc2cc(NC(=O)c3cccnc3)ccc2N1 | 579 s |
| Cn1ncc2c3ccccc3n(CC(=O)NCCCN3CCOCC3)c2c1=O | 582 s |
| Cn1nccc1C(=O)N1CCc2cc(-c3csc(C4CC4)n3)ccc21 | 990 s |
| CCOC(=O)N1CCN(c2ncc(C(=O)Nc3ccccc3)c(N)n2)CC1 | 692 s |
| O=C(Cc1ccsc1)NCCC1CCN(C(=O)Nc2ccc(F)cc2F)CC1 | 766 s |
| Cc1nc2ccn(Cc3cccnc3)c(=O)c2cc1C(=O)N1CCOCC1 | 552 s |
| Cc1ccc(C(=O)N2CCc3[nH]cnc3C23CCCC3)c(C)c1 | 564 s |
| CCn1cc(C)c(C(=O)O)c1CC(=O)N1CCCCCC1 | 720 s |
| O=C(c1cn(-c2cc(N3CCSCC3)ncn2)cn1)N1CCN(c2ncccn2)CC1 | 739 s |
| O=C(Cn1ccc2ccccc21)NCCn1nc(-n2ccnc2)ccc1=O | 546 s |
